Laboratory results: article PMC7413254 (Nature Communications, 2020)
Several values for one entry are separate records, joined by “and”; a condition that tells them apart may be missing. Identical values can stand only once. Like-named read-outs stand apart in the source and are kept apart here.

Columns and labels:
non-expressing oocytes [1] = assay: cells; format: cell-based, Xenopus laevis; conditions: Xenopus laevis, Oocyte
In short: (§1)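 ND96, pH 5.5, 1.5 h, 27.5 °C; uptake direction acidic outside → oocyte cytosol, mimicking efflux from digestive vacuole. Ice-cold wash stop, 10% SDS lysis, scintillation counting. Ten oocytes/treatment, ≥4 independent experiments.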

PfCRT^3D7 [2] = target: T1, PfCRT^3D7 (Plasmodium falciparum, UniProt Q8IBZ9); assay: cell-based; format: cell-based
T1 sequence (Q8IBZ9 59-398): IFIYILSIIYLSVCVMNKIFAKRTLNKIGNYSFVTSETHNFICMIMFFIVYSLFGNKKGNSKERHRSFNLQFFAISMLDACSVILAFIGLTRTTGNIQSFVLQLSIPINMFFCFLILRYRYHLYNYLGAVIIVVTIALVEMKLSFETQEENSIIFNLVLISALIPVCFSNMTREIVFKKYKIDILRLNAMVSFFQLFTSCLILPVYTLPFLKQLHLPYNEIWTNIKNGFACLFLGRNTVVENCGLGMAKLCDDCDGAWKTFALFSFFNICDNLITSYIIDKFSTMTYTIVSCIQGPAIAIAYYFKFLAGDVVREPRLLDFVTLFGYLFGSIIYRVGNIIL
In short: as §1

PfCRT^Dd2 [3] = target: T2, PfCRT^Dd2 (Plasmodium falciparum, UniProt Q9N623, A220S/I356T/K76T/M74I/N326S/N75E/Q271E/R371I); assay: [3H]CQ uptake into Xenopus oocytes, cis-inhibition by unlabelled solute; format: cell-based
T2 sequence (Q9N623 whole entry A220S/I356T/K76T/M74I/N326S/N75E/Q271E/R371I): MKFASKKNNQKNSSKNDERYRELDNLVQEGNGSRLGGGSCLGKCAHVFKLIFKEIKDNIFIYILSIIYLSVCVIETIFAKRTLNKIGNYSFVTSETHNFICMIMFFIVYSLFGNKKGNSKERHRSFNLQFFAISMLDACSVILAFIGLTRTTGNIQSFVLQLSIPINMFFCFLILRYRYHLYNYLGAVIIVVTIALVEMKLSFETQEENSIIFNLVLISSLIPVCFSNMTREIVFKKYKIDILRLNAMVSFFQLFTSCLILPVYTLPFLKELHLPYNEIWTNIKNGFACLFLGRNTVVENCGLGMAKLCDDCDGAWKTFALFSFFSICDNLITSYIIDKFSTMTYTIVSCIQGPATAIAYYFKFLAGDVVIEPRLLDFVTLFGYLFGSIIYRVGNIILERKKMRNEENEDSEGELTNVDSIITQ
In short: as §1

PfCRT^Ecu1110 [4] = target: T3, PfCRT^Ecu1110 (Plasmodium falciparum, UniProt Q9N623, A220S/I356L/K76T/N326D); assay: as above; format: cell-based
T3 sequence (Q9N623 whole entry A220S/I356L/K76T/N326D): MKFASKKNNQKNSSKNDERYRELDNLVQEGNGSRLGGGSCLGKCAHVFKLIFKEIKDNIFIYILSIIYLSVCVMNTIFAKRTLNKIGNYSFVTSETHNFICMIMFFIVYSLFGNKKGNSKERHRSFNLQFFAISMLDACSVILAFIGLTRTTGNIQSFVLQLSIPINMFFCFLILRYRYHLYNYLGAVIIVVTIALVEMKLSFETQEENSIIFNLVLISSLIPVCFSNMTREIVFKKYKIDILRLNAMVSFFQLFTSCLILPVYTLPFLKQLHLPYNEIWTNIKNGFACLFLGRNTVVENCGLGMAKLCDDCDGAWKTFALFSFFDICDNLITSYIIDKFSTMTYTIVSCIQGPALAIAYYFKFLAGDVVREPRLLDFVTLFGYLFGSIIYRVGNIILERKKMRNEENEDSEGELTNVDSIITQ
In short: as §1

non-expressing oocytes [5] = format: cell-based, Xenopus laevis
In short: (§2)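 Oocytes (ten per treatment, ≥4 independent frogs/days) were preloaded by injecting VF-6 in 25 nL ND96 at pH 5.0, 5.5, 6.0 or 7.0, or Na^+-free choline buffer, then uptake run 1.5 h, 27.5 °C, ND96 pH 5.5 by default. Internal concentrations assumed ~400 nL oocyte volume.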

PfCRT^3D7 [6] = target: T1, PfCRT^3D7; assay: cell-based; format: cell-based; remark: listed apart in the source
In short: as §2

PfCRT^Dd2 [7] = target: T2, PfCRT^Dd2; assay: cell-based; format: cell-based; conditions: […]; for activity at 45000 µM: [test solute]i = 45 mM (30 mM for some solutes due to solubility)
In short: as §2

PfCRT^Ecu1110 [8] = target: T3, PfCRT^Ecu1110; assay: cell-based; format: cell-based; conditions: […]
In short: as §2

PfNT1 = target: T4, PfNT1 (Plasmodium falciparum, UniProt Q8IDM6); assay: cell-based; format: cell-based; conditions: […]
T4 construct: expressed in transfected cells; host or cells: Xenopus laevis oocytes (stage V-VI), cRNA-injected
T4 sequence (Q8IDM6 whole entry): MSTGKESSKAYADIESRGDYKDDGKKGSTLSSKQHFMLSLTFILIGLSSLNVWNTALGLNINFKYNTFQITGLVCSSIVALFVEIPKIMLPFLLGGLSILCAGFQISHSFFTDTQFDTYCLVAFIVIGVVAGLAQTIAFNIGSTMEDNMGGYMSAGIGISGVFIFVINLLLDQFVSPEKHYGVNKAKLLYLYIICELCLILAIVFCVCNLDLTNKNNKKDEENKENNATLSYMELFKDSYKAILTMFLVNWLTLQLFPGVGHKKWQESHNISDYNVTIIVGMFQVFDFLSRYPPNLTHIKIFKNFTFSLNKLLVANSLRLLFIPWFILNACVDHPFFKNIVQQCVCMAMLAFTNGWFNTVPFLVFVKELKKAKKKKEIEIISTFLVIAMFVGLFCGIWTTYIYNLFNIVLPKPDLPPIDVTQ
In short: as §2

PfCRT [9] = assay: Influx of VF-6 via PfCRT into the oocyte, solutes tested as potential co-substrates; format: cell-based, Plasmodium falciparum; set-up: key: X: Compounds that have been tested as potential co-substrates but are not required for influx of VF-6 via PfCRT into the oocyte; conditions: X marks the solute
PfCRT [10] = assay: Potential co-substrates tested for influx of VF-6 via PfCRT into the oocyte; format: cell-based, Plasmodium falciparum; set-up: key: X: Compounds that have been tested as potential co-substrates but are not required for influx of VF-6 via PfCRT into the oocyte
[11] = read-out: Uptake of [3H]CQ (% PfCRTDd2 control), cis-inhibition, non-expressing oocytes, SEM
[12] = read-out: Uptake of [3H]CQ (% non-expressing oocyte control), cis-inhibition
[13] = read-out: Uptake of [3H]CQ (% PfCRT3D7 control), cis-inhibition
[14] = read-out: Uptake of [3H]CQ (% PfCRTDd2 control), cis-inhibition, PfCRT3D7, SEM
[15] = read-out: PfCRT-mediated [3H]CQ transport, cis-inhibition (% PfCRTDd2 control)
[16] = read-out: Uptake of [3H]CQ (% PfCRTDd2 control), cis-inhibition, PfCRTDd2, SEM
[17] = read-out: PfCRT-mediated [3H]CQ transport, cis-inhibition (% PfCRTEcu1110 control)
[18] = read-out: Uptake of [3H]CQ (% PfCRTDd2 control), cis-inhibition, PfCRTEcu1110, SEM
[19] = read-out: Uptake of [3H]CQ (% PfCRTEcu1110 control), cis-inhibition
[20] = read-out: [3H]CQ transport (% PfCRTEcu1110 control), cis-inhibition, PfCRTEcu1110, SEM
[21] = read-out: PfCRT-mediated [3H]CQ transport, trans-stimulation (% PfCRT3D7 control)
[22] = read-out: Uptake of [3H]CQ (% PfCRT3D7 control), trans-stimulation
[23] = read-out: Uptake of [3H]CQ (% PfCRTDd2 control), trans-stimulation, PfCRT3D7, SEM
[24] = read-out: Uptake of [3H]CQ (% PfCRTDd2 control), trans-stimulation, PfNT1, SEM
[25] = read-out: Uptake of [3H]CQ (% PfNT1 control), trans-stimulation

## N[C@@H](Cc1ccc(O)cc1)C(=O)O [L-tyrosine]
non-expressing oocytes [1]; [11]
  inhibition at 500 µM: 2.5 ± 0.03%
  inhibition at 1000 µM: 4.2 ± 0.03%
  inhibition at 2000 µM: 2.9 ± 0.04%
non-expressing oocytes [1]; [12]
  inhibition at 500 µM: 96 ± 4.2%
  inhibition at 1000 µM: 99 ± 5.3%
  inhibition at 2000 µM: 101 ± 3.9%
PfCRT^3D7 [2]; [13]
  inhibition at 500 µM: 99 ± 4.7%
  inhibition at 1000 µM: 101 ± 3.8%
  inhibition at 2000 µM: 99 ± 4.7%
PfCRT^3D7 [2]; [14]
  inhibition at 500 µM: 2.8 ± 0.07%
  inhibition at 1000 µM: 2.5 ± 0.04%
  inhibition at 2000 µM: 3.1 ± 0.03%
PfCRT^Dd2 [3]; [15]
  inhibition at 500 µM: 94 ± 4.6%
  inhibition at 2000 µM: 97 ± 3.5%
PfCRT^Dd2 [3]; [16]
  inhibition at 500 µM: 96 ± 3.2%
  inhibition at 1000 µM: 98 ± 2.3%
  inhibition at 2000 µM: 99 ± 1.4%
PfCRT^Ecu1110 [4]; [17]
  inhibition at 500 µM: 96 ± 5.3%
  inhibition at 2000 µM: 95 ± 3.4%
PfCRT^Ecu1110 [4]; [18]
  inhibition at 500 µM: 32 ± 1%
  inhibition at 1000 µM: 32 ± 1.1%
  inhibition at 2000 µM: 32 ± 1.7%
PfCRT^Ecu1110 [4]; [19]
  inhibition at 500 µM: 99 ± 1.4%
  inhibition at 1000 µM: 101 ± 1.4%
  inhibition at 2000 µM: 97 ± 1.5%
PfCRT^Ecu1110 [4]; [20]
  inhibition at 500 µM: 29 ± 0.7%
  inhibition at 1000 µM: 29 ± 1.5%
  inhibition at 2000 µM: 29 ± 0.5%
non-expressing oocytes [5]
  Uptake of [3H]CQ (% non-expressing oocyte control), trans-stimulation: 99 ± 3.3 % non-expressing oocyte control and 98 ± 4.2 % non-expressing oocyte control
non-expressing oocytes [5]; SEM
  Uptake of [3H]CQ (% PfCRTDd2 control), trans-stimulation, non-expressing oocytes: 2.4 ± 0.01 % PfCRTDd2 control and 2.5 ± 0.01 % PfCRTDd2 control
PfCRT^3D7 [6]; SEM
  [3H]CQ transport (% PfCRT3D7 control), trans-stimulation, PfCRT3D7: 0.3 ± 0.04 % PfCRT3D7 control
PfCRT^3D7 [6]; [21]
  activity at 5000 µM: 97 ± 3.4%
  activity at 45000 µM: 98 ± 2.2%
PfCRT^3D7 [6]; [22]
  activity at 5000 µM: 99 ± 2.2%
  activity at 45000 µM: 100 ± 2.4%
PfCRT^3D7 [6]; [23]
  activity at 5000 µM: 3.3 ± 0.04%
  activity at 45000 µM: 3.3 ± 0.01%
PfCRT^Dd2 [7]; pH 5.5, read-out: PfCRT-mediated [3H]CQ transport, trans-stimulation (% PfCRTDd2 control), [test solute]i = 5 mM (intracellular), PfCRTDd2 oocytes, normalised to oocyte type control
  activity at 5000 µM: 99 ± 2.6%
PfCRT^Dd2 [7]; pH 5.5, read-out: Uptake of [3H]CQ (% PfCRTDd2 control), trans-stimulation, PfCRTDd2, total [3H]CQ transport, [test solute]i = 5 mM (intracellular), mean ± SEM, SEM
  activity at 5000 µM: 101 ± 3.3%
PfCRT^Dd2 [7]; pH 5.5, read-out: Uptake of [3H]CQ (% PfCRTDd2 control), trans-stimulation, PfCRTDd2 oocytes, [test solute]i = 5 mM, total [3H]CQ transport, normalised to the oocyte type control
  activity at 5000 µM: 101 ± 3.3%
PfCRT^Dd2 [7]; pH 5.5, read-out: Uptake of [3H]CQ (% PfCRTDd2 control), trans-stimulation, PfCRTDd2 oocytes, total [3H]CQ transport, normalised to the oocyte type control
  activity at 45000 µM: 96 ± 2.4%
PfCRT^Dd2 [7]; pH 5.5, read-out: [3H]CQ transport (% PfCRTDd2 control), trans-stimulation, PfCRTDd2, trans-stimulation, [test solute]i = 5 mM (injected), PfCRT-mediated component (background subtracted), mean ± SEM, SEM
  activity at 5000 µM: 99 ± 2.6%
PfCRT^Dd2 [7]; pH 5.5, read-out: [3H]CQ transport (% PfCRTDd2 control), trans-stimulation, PfCRTDd2, trans-stimulation, PfCRT-mediated component (background subtracted), mean ± SEM, SEM
  activity at 45000 µM: 94 ± 3.3%
PfCRT^Ecu1110 [8]; pH 5.5, read-out: PfCRT-mediated [3H]CQ transport, trans-stimulation (% PfCRTEcu1110 control), [test solute]i = 5 mM (intracellular), PfCRTEcu1110 oocytes, normalised to oocyte type control
  activity at 5000 µM: 97 ± 1.8%
PfCRT^Ecu1110 [8]; pH 5.5, read-out: Uptake of [3H]CQ (% PfCRTEcu1110 control), trans-stimulation, PfCRTEcu1110 oocytes, [test solute]i = 5 mM, total [3H]CQ transport, normalised to the oocyte type control
  activity at 5000 µM: 99 ± 2.6%
PfCRT^Ecu1110 [8]; pH 5.5, read-out: Uptake of [3H]CQ (% PfCRTEcu1110 control), trans-stimulation, PfCRTEcu1110 oocytes, [test solute]i = 45 mM (30 mM for some solutes due to solubility), total [3H]CQ transport, normalised to the oocyte type control
  activity at 45000 µM: 100 ± 3.1%
PfCRT^Ecu1110 [8]; read-out: Uptake of [3H]CQ (% PfCRTDd2 control), trans-stimulation, PfCRTEcu1110, total [3H]CQ transport, [test solute]i = 5 mM (intracellular), mean ± SEM, SEM
  activity at 5000 µM: 35 ± 2.1%
PfCRT^Ecu1110 [8]; read-out: Uptake of [3H]CQ (% PfCRTDd2 control), trans-stimulation, PfCRTEcu1110, total [3H]CQ transport, [test solute]i = 45 mM (intracellular; 30 mM for some solutes due to solubility), mean ± SEM, SEM
  activity at 45000 µM: 36 ± 1.8%
PfNT1; [24]
  activity at 5000 µM: 2.2 ± 0.02%
  activity at 45000 µM: 2.2 ± 0.02%
PfNT1; [25]
  activity at 5000 µM: 100 ± 3.7%
  activity at 45000 µM: 99 ± 2.2%
PfCRT [9]
  Compounds that have been tested as potential co-substrates but are not required for influx of VF-6 via PfCRT into the oocyte: X
PfCRT [10]
  Tested as potential co-substrate but not required for influx of VF-6 via PfCRT into the oocyte: X
